From ChEMBL document CHEMBL1128829, “Synthesis and pharmacological activities of a novel tripeptide mimetic dopamine prodrug” (Bioorg Med Chem Lett, 1995) come the findings set out here.

Structures are written as SMILES. Where a SMILES comes first, the peptide text is derived from it.

One may read the bioavailability as dose-corrected exposure relative to a reference, in per cent.

Data set [1] deals with Rattus norvegicus. The data set is described as follows: Reduction of (+)-methamphetamine-induced rotational counts on unilateral-lesion rats at a dose of 9.60 mg/Kg after 2 h. It is filed as functional.
The species named for data set [2] is Rattus norvegicus. The data set is described as follows: Percent recovery after 90 min of incubation in a rat intestinal mucosa suspension at 37 degree Centigrade. The class given is functional, organism-based.
The subject of data set [3] is Rattus norvegicus. The data set can be described thus: Reduction of (+)-methamphetamine-induced rotational counts on unilateral-lesion rats at a dose of 9.60 mg/Kg after 1 h. The class given is functional.
Data set [4] in a line: Net water uptake by a carrier mediated transport (%cm) mechanism. It is filed as ADME. As to conditions: buffer.
Data set [5] is filed under the species Rattus norvegicus. The data set is described as follows: Dimensionless membrane permeability (Pm) from in situ single-pass rat jejunal perfusion at a concentration of 0.1 mM. It is filed as functional, organism-based.
The species entered for data set [6] is Rattus norvegicus. The data set is described as follows: Percent recovery after 2 min of incubation in a rat intestinal mucosa suspension at 37 degree Centigrade. The class given is functional, organism-based.
Data set [7] is described as follows: Percent of oral bioavailability up to 1000 mg/day. It is filed as ADME, organism-based. The following applies: eutheria, in vivo.
For data set [8], the system named is Rattus norvegicus. The data set is described as follows: Reduction of (+)-methamphetamine-induced rotational counts on unilateral-lesion rats at a dose of 4.20 mg/Kg after 1 h. It is filed as functional.

In the case of `N[C@@H](C(=O)N1CCC[C@H]1C(=O)N[C@H](Cc1ccc(O)c(O)c1)C(=O)O)c1ccc(O)cc1`, the results for the Counts of rotation with Rattus norvegicus [1] and in the data set on Rattus norvegicus [3] were 247 turns hr-1 and 223 turns hr-1, respectively. The same compound gave a Recovery in the data set filed under Rattus norvegicus [2] of 95%. Further, in data set [4], the Activity is 1.64%. In the data set listed under Rattus norvegicus [5], this compound had a Permeability of 1.53.

Regarding `NCC(=O)N[C@@H](Cc1ccccc1)C(=O)O` (H-Gly-Phe-OH), the Recovery in the data set listed under Rattus norvegicus [6] turned out to be 19%.

The compound `N[C@@H](Cc1ccc(O)c(O)c1)C(=O)O` [LEVODOPA] had a bioavailability in data set [7] of 33%. The compound also had an Activity in data set [4] of 0.03%. In the data set on Rattus norvegicus [8], the Counts of rotation worked out at 287 turns hr-1. This compound also showed a Permeability in the data set filed under Rattus norvegicus [5] of 5.38.
